Measured values as given in the NIST ThermoML archive (doi:10.1016/j.tca.2019.05.006).
± gives the expanded uncertainty stated by the source.

Assay: molar heat capacity at constant pressure
Conditions: 101.33 kPa, Crystal, DSC

[Cu+2].[O-2] [copper(II) oxide]
Conditions	molar heat capacity at constant pressure [J/K/mol]
300 K	44.4 ± 22
325 K	45.8 ± 28
350 K	46.8 ± 28
375 K	47.7 ± 22
400 K	48.5 ± 26
425 K	49.2 ± 24
450 K	49.7 ± 28
475 K	50.3 ± 24
500 K	50.8 ± 26
525 K	51.2 ± 28
550 K	51.6 ± 26
575 K	51.9 ± 26
600 K	52.3 ± 22
625 K	52.6 ± 26
650 K	52.9 ± 28
675 K	53.2 ± 28
700 K	53.5 ± 24
725 K	53.8 ± 26
750 K	54 ± 28
775 K	54.3 ± 26
800 K	54.5 ± 24
825 K	54.7 ± 24
